Test results reported in patent publication US20240374692A1, “A NOVEL ACYLATED INSULIN ANALOG” (SUNSHINE LAKE PHARMA CO., LTD., priority 2021, published 2024).
Read-outs that look alike come from different tables or passages of the source. Blank lines part the entries; values can stand above or below the substance they belong to.

Legend:
[1] = rat, in vivo, sc, 10 nmol/kg
insulin receptor B = target: T1, insulin receptor B (Homo sapiens, UniProt P06213); test: Insulin receptor B autophosphorylation in transfected cells (Cisbio Phospho-IR beta Tyr1150/1151 kit); assay type: cell-based; details: for Relative HI activity: relative to human insulin; for Relative 0% HSA activity: 1.5% HSA relative to 0% HSA
T1 construct: expressed in transfected cells
T1 sequence (P06213 28-758 limits assumed): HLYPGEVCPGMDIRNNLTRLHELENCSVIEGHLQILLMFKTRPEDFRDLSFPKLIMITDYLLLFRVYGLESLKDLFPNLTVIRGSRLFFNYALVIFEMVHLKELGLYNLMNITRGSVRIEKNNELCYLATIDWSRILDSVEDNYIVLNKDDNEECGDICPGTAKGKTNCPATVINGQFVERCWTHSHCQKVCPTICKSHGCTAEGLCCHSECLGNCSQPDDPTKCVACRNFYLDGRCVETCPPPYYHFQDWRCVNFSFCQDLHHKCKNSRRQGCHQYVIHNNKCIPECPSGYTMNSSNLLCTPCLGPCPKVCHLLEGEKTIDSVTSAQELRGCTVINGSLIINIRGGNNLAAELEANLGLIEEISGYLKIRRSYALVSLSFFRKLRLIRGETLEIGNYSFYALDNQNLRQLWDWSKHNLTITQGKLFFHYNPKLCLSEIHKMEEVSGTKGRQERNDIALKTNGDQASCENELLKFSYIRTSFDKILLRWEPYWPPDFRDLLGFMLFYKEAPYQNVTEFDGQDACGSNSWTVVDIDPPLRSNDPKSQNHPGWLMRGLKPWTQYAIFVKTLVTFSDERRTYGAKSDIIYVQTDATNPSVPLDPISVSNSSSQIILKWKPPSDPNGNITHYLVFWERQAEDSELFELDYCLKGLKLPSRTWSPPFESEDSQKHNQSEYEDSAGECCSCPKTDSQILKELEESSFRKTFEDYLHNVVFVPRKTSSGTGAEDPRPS
T1 sequence (P06213 763-1382 partner limits assumed): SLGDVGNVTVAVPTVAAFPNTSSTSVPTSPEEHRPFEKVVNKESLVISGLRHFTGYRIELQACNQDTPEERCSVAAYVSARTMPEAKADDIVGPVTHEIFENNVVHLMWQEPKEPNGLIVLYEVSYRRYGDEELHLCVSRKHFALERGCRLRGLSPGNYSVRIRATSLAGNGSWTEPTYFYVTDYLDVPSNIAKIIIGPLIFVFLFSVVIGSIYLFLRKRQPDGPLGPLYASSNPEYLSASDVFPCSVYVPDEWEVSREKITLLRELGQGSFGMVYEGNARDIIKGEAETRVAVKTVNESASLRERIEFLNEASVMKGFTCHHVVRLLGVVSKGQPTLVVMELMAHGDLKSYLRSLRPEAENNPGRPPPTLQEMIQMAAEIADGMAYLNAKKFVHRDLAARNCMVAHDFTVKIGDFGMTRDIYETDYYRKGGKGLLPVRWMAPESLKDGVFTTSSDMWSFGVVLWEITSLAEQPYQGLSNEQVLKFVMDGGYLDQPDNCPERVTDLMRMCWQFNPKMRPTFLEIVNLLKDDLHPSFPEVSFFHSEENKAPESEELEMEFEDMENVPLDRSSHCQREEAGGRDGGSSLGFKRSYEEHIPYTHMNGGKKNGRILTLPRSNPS
Procedure: The phosphorylation level of insulin receptor B was detected by Cisbio's Phospho-IR beta (Tyr1150/1151) kit method to evaluate the biological activity of insulin. The cells were seeded into a 96-well plate overnight, and after the serum in the medium was removed, 40 μl of serum-free medium was added to culture for about 4 h. Then a dilution series of insulin derivatives were prepared with blank solution (0.6% casein, 0.06 mg/mL EDTA, 1×DPBS) and incubated with cells in the 96-well plate for 5 min in a CO2 incubator (37° C., 5% CO2). The liquid in the 96-well plate was poured off, 100 µL of a mixture of lysis buffer (2% Triton X-100, 150 mM NaCl, 50 mM HEPES, pH=7) and inhibitor (Blocking Reagent in the kit) was added to lyse the cells, then the plate was shaken at 350 rpm for 30 min. Relative activity (in percent (%)) was assessed by measuring insulin receptor phosphorylation levels in the supernatant after cell lysis and fitting a curve to the data using nonlinear regression in Graphpad Prism 5 software. Related assays were also used, in which the blank solution also contained 1.5% HSA to simulate physiological conditions. Changes in the phosphorylation levels of the insulin-activated insulin receptors of the invention were detected as an indirect reflection of the albumin binding activity.

[2] = test system: STZ-induced type I diabetes mellitus (T1DM) C57BL/6 mice; test: Hypoglycemic effect, repeated administration (four times) to STZ-induced T1DM C57BL/6 mice (Example 5); assay type: in vivo; design: key to random blood glucose: random blood glucose in mmol/L, Mean±SEM; details: for random blood glucose: 1400 nmol/Kg S.C. four times
Procedure: SPF grade C57BL/6 mice were reared in a suitable rearing box in a barrier environment, with a rearing temperature of 20-26° C., a humidity of 40-70%, a time between day and night of 12 h/12 h, and the mice had free access to standard food and autoclaved sterilization water. After a 3-day quarantine period and a 2-day acclimation period, the mice were fasted for 12 h, and the mice were injected intraperitoneally with streptozotocin solution (STZ, 13 mg/mL, in citrate buffer) or citrate buffer at 130 mg/kg (control group). 3 Days and 7 days after administration of streptozotocin, random blood glucose and fasting blood glucose were detected, and the random blood glucose value above 25 mmol/L and fasting blood glucose value above 11.1 mmol/L were selected as T1DM model mice for follow-up experiments. On the day before administration, random blood glucose was monitored and mice were weighed. Mice were divided into 4 groups according to random blood glucose and body weight.
Subcutaneous administration (S.C.) was used to administer the corresponding vehicle or drug, once every 4-5 days, for a total of 4 administrations. During the experiment, the animals were allowed to eat and drink water freely. The random blood glucose before the first administration, and 0.25, 0.5, 1, 2, 4, 6, 8, 10, 24, 48, 72, and 96 h after administration were assessed, as well as the random blood glucose before the second, third and fourth administration, and 1, 2, 4, 6, 8, 24, 48, 72, 96 and 120 h after administration.
(§1) All raw data were entered into Excel files and expressed as Mean±SEM. Statistical analysis of data was performed using Graphpad Prism 7.0 software, one-way or two-way ANOVA comparison method, and P<0.05 was used as the criterion for significant differences.

[3] = mouse, in vivo, sc, 10 nmol/kg
normal C57BL/6 mice = test: Hypoglycemic effect, single subcutaneous administration to normal C57BL/6 mice; assay type: in vivo; design: blood glucose: unit not given here; details: for blood glucose: Mean ± SEM, n = 6; for blood glucose compared with the control group: 1 h after single S.C. administration
Procedure: SPF grade C57BL/6 mice were reared in a suitable rearing box in a barrier environment, with a rearing temperature of 20-26° C., a humidity of 40-70%, a time between day and night of 12 h/12 h, and the mice had free access to standard food and autoclaved sterilization water. After a 3-day quarantine period and a 2-day acclimation period, random blood glucose was measured and mice were weighed. Mice were divided into 6 groups according to random blood glucose and body weight.
Single subcutaneous administration (S.C.) was used to administer the corresponding vehicle or drug. The control group was administered the vehicle PBS without fasting during the whole process, and the animals were allowed to eat and drink freely. Random blood glucose values of C57 mice were measured before administration and at 0.25, 0.5, 1, 2, 4, 6, 8, 10, 24, 48, 54, 72 and 96 hours after administration.
as §1

[4] = rat, in vivo, iv, 10 nmol/kg
[5] = dog, in vivo, iv, 10 nmol/kg
Procedure: Two beagle dogs, one in each group, a double-cycle crossover design was used, with a washout period of 1 week, and a single dose of 10 nmol/kg of Icodec or Insulin-a10 was administered to the lateral small saphenous vein of the hind limb in each cycle, the blood was collected and plasma was centrifuged at 0.083, 0.25, 0.5, 1, 2, 6, 8, 24, 30, 48, 72 and 96 h after administration, the concentration of Icodec or Insulin-a10 in the plasma was detected.

[6] = test system: STZ-induced type I diabetes mellitus (T1DM) C57BL/6 mice; test: Hypoglycemic effect, repeated administration (three times) to STZ-induced T1DM C57BL/6 mice (Example 6); assay type: in vivo; design: key to random blood glucose: blood glucose in mmol/L; details: Mean ± SEM, n = 7
Procedure: SPF grade C57BL/6 mice were reared in a suitable rearing box in a barrier environment, with a rearing temperature of 20-26° C., a humidity of 40-70%, a time between day and night of 12 h/12 h, and the mice had free access to standard food and autoclaved sterilization water. After the 3-day quarantine period and the 2-day acclimation period, the mice were fasted for 12 h, and the mice were injected intraperitoneally with streptozotocin solution (STZ, 13 mg/mL, in citrate buffer) at 130 mg/kg. 3 Days and 7 days after administration of streptozotocin, random blood glucose and fasting blood glucose were detected, and the random blood glucose value above 25 mmol/L and fasting blood glucose value above 11.1 mmol/L were selected as T1DM model mice for follow-up experiments. On the day before administration, random blood glucose was monitored and mice were weighed. Mice were divided into 6 groups according to random blood glucose and body weight.
Subcutaneous administration (S.C.) was used to administer the corresponding vehicle or drug, once every 4-5 days, for a total of 3 administrations. During the experiment, the animals were allowed to eat and drink water freely. The random blood glucose before the first administration, and 0.25, 0.5, 1, 2, 4, 6, 8, 10, 24, 48, 72, and 96 h after administration were assessed, as well as the random blood glucose before the second and third administration, and 0.5, 1, 2, 6, 24, 48, 72, 96 and 120 h after administration.
as §1

[7] = single S.C., Degludec 200 nmol/Kg, others 1400 nmol/Kg

- EC50 (insulin receptor B; 0% HSA): 230 nM
- Relative HI activity (insulin receptor B; 0% HSA): 0.54%
- EC50 (insulin receptor B; 1.5% HSA): 5020 nM
- Relative 0% HSA activity (insulin receptor B): 4.58%
- Relative HI activity (insulin receptor B; 1.5% HSA): 0.05%
Substance: A14E, B16E, B25H, B29K (N^ε-eicosanedioyl-gGlu-2xOEG), DesB30 human insulin analog [Insulin-a1, reference compound]
- AUClast [1]: 10300 ng·h/mL
- MRTINF_obs [1]: 34.1 h
- T1/2 [1]: 21 h
- time after administration at which blood glucose reached the lowest level ([2]; 1400 nmol/Kg S.C., Insulin-a1 each administration, Insulin-a3 first and second administrations): 24 h
- time after administration at which blood glucose reached the normal level ([2]; 1400 nmol/Kg S.C., after each administration): 72 h
- random blood glucose ([2]; Day 0 (1st administration)): 33.3 ± 0.1
- random blood glucose ([2]; Day 1): 22.5 ± 9.6
- random blood glucose ([2]; Day 4 (2nd administration)): 31.1 ± 2.3
- random blood glucose ([2]; Day 5): 15.6 ± 6.6
- random blood glucose ([2]; Day 9 (3rd administration)): 28.4 ± 4.9
- random blood glucose ([2]; Day 10): 12.2 ± 7.9
- random blood glucose ([2]; Day 14 (4th administration)): 28.4 ± 5.9
- random blood glucose ([2]; Day 18): 26.2 ± 5.7
- time the effective glucose control effect can be maintained ([2]; repeated administration, C57BL6 mice modeled by STZ): 3 days/time
- AUClast [3]: 10000 ng·h/mL
- T1/2 [3]: 14.3 h
- blood glucose (normal C57BL/6 mice; 0 h (before administration), single S.C., Degludec 200 nmol/Kg, others 1400 nmol/Kg): 7.8 ± 1.1
- blood glucose (normal C57BL/6 mice; 0.25 h after single S.C., Degludec 200 nmol/Kg, others 1400 nmol/Kg): 8.8 ± 1.4
- blood glucose (normal C57BL/6 mice; 0.5 h after single S.C., Degludec 200 nmol/Kg, others 1400 nmol/Kg): 6.6 ± 0.7
- blood glucose compared with the control group (normal C57BL/6 mice): decreased significantly
- blood glucose (normal C57BL/6 mice; 1 h after single S.C., Degludec 200 nmol/Kg, others 1400 nmol/Kg): 5.6 ± 0.7
- blood glucose (normal C57BL/6 mice; 2 h after single S.C., Degludec 200 nmol/Kg, others 1400 nmol/Kg): 4.4 ± 0.7
- blood glucose (normal C57BL/6 mice; 4 h after single S.C., Degludec 200 nmol/Kg, others 1400 nmol/Kg): 3.6 ± 0.7
- blood glucose (normal C57BL/6 mice; 6 h after single S.C., Degludec 200 nmol/Kg, others 1400 nmol/Kg): 3.8 ± 0.4
- blood glucose (normal C57BL/6 mice; 8 h after single S.C., Degludec 200 nmol/Kg, others 1400 nmol/Kg): 3.6 ± 0.7
- blood glucose (normal C57BL/6 mice; 10 h after single S.C., Degludec 200 nmol/Kg, others 1400 nmol/Kg): 3.4 ± 0.7
- blood glucose (normal C57BL/6 mice; 24 h after single S.C., Degludec 200 nmol/Kg, others 1400 nmol/Kg): 2.9 ± 0.7
- blood glucose (normal C57BL/6 mice; 48 h after single S.C., Degludec 200 nmol/Kg, others 1400 nmol/Kg): 4.9 ± 1.5
- blood glucose (normal C57BL/6 mice; 72 h after single S.C., Degludec 200 nmol/Kg, others 1400 nmol/Kg): 7.3 ± 1.3
- blood glucose (normal C57BL/6 mice; 96 h after single S.C., Degludec 200 nmol/Kg, others 1400 nmol/Kg): 7.8 ± 0.6
- effective blood glucose control time (normal C57BL/6 mice; [7]): 72 h
- time after administration at which blood glucose reached the lowest level (normal C57BL/6 mice; [7]): 24 h
- time after administration at which blood glucose returned to normal (normal C57BL/6 mice; [7]): 48 h
- AUClast [4]: 7550 ng·h/mL
- T1/2 [4]: 15.3 ± 4.8 h

- EC50 (insulin receptor B; 0% HSA): 77.2 nM
- Relative HI activity (insulin receptor B; 0% HSA): 1.60%
- EC50 (insulin receptor B; 1.5% HSA): 1480 nM
- Relative 0% HSA activity (insulin receptor B): 5.23%
- Relative HI activity (insulin receptor B; 1.5% HSA): 0.17%
Substance: A14E, B16H, B25H, B29K (N^ε-eicosandioyl-gGlu-2xOEG), DesB30 human insulin analog [Icodec, reference compound]
- AUClast [1]: 6560 ng·h/mL
- MRTINF_obs [1]: 30.5 h
- T1/2 [1]: 16.7 h
- AUClast [5]: 35700 ± 120 ng·h/mL
- T1/2 [5]: 35.7 ± 6.7 h
- blood glucose compared with the control group (normal C57BL/6 mice): decreased significantly
- effective blood glucose control time (normal C57BL/6 mice; [7]): 96 h
- time after administration at which blood glucose reached the lowest level (normal C57BL/6 mice; [7]): 48 h
- random blood glucose ([6]; 250 nmol/Kg S.C. three times, Day 0 (1st)): 32.5 ± 2.2
- random blood glucose ([6]; 250 nmol/Kg S.C. three times, Day 1): 25.7 ± 4.2
- random blood glucose ([6]; 250 nmol/Kg S.C. three times, Day 4 (2nd)): 31.3 ± 2.6
- random blood glucose ([6]; 250 nmol/Kg S.C. three times, Day 5): 25.1 ± 3.2
- random blood glucose ([6]; 250 nmol/Kg S.C. three times, Day 9 (3rd)): 31.8 ± 2.2
- random blood glucose ([6]; 250 nmol/Kg S.C. three times, Day 10): 17.2 ± 6.8
- random blood glucose ([6]; 250 nmol/Kg S.C. three times, Day 14): 30.6 ± 4.6
- random blood glucose ([6]; 500 nmol/Kg S.C. three times, Day 0 (1st)): 32.5 ± 1.6
- random blood glucose ([6]; 500 nmol/Kg S.C. three times, Day 1): 20.3 ± 6.3
- random blood glucose ([6]; 500 nmol/Kg S.C. three times, Day 4 (2nd)): 30.6 ± 2.6
- random blood glucose ([6]; 500 nmol/Kg S.C. three times, Day 5): 19.5 ± 5.8
- random blood glucose ([6]; 500 nmol/Kg S.C. three times, Day 9 (3rd)): 27.0 ± 7.1
- random blood glucose ([6]; 500 nmol/Kg S.C. three times, Day 10): 15.9 ± 6.0
- random blood glucose ([6]; 500 nmol/Kg S.C. three times, Day 14): 33.0 ± 0.9
- random blood glucose ([6]; 1000 nmol/Kg S.C. three times, Day 0 (1st)): 30.8 ± 2.9
- random blood glucose ([6]; 1000 nmol/Kg S.C. three times, Day 1): 20.4 ± 4.6
- random blood glucose ([6]; 1000 nmol/Kg S.C. three times, Day 4 (2nd)): 31.6 ± 2.1
- random blood glucose ([6]; 1000 nmol/Kg S.C. three times, Day 5): 12.8 ± 5.4
- random blood glucose ([6]; 1000 nmol/Kg S.C. three times, Day 9 (3rd)): 29.7 ± 3.7
- random blood glucose ([6]; 1000 nmol/Kg S.C. three times, Day 10): 10.1 ± 6.4
- random blood glucose ([6]; 1000 nmol/Kg S.C. three times, Day 14): 27.7 ± 4.6
